In brackets after ≈: the same amount, converted by molar mass.
How the values were obtained:
Assay in all cases: MIC on standard strains, standard method of Japan Society of Chemotherapy
Assay type in all cases: cell-based
P. mirabilis IFO 3849 = conditions: Proteus mirabilis, IFO3849, P. mirabilis IFO 3849; read-out: MIC
Experimental: (§1) Antimicrobial activity of the compounds of the present invention were measured using CTM (cefotiam) and FMOX (flomoxef) as control drugs in accordance with the standard method of Japan Society of Chemotherapy. Of the 25 standard strains used in this test, Staphylococcus aureus 167 and Staphylococcus aureus 195 belong to MRSA.
(§2) In these tables, drugs tested are shown by the corresponding examples in which they were synthesized.

S. epidemidis IAM 1296 = tested on: S. epidemidis IAM 1296
Experimental: as §1, §2

S. aureus 167 = conditions: Staphylococcus aureus; S. aureus 167 (MRSA)
Experimental: as §1, §2

E. coli CSH2(RK1) = conditions: Escherichia coli
Experimental: as §1, §2

C. freundii ATCC 8090 = conditions: Citrobacter freundii, ATCC8090, C. freundii ATCC 8090; read-out: MIC
Experimental: as §1, §2

M. morganii IFO 3848 = conditions: Morganella morganii, IFO3848
Experimental: as §1, §2

K. pneuminiae No. 42 = tested on: K. pneuminiae No. 42
Experimental: as §1, §2

E. coli CSH2(RE45) = conditions: Escherichia coli
Experimental: as §1, §2

P. cepacia = conditions: Burkholderia cepacia, read-out: MIC
Experimental: as §1, §2

K. pneuminiae IFO 3317 = tested on: K. pneuminiae IFO 3317
Experimental: as §1, §2

S. aureus Smith = conditions: Staphylococcus aureus, read-out: MIC
Experimental: as §1, §2

E. coli NHIJ JC-2 = conditions: Escherichia coli, NHIJJC2
Experimental: as §1, §2

B. subtilis ATCC 6633 = conditions: Bacillus subtilis, ATCC6633, B. subtilis ATCC 6633; read-out: MIC
Experimental: as §1, §2

S. marcescens No. 16-2 = conditions: Serratia marcescens, NO.162
Experimental: as §1, §2

P. aeruginosa AKR17 = conditions: Pseudomonas aeruginosa
Experimental: as §1, §2

E. cloacae ATCC 13407 = conditions: Enterobacter cloacae, ATCC13407, E. cloacae ATCC 13407; read-out: MIC
Experimental: as §1, §2

P. aeruginosa NCTC 10490 = conditions: Pseudomonas aeruginosa, NCTC10490, P. aeruginosa NCTC 10490; read-out: MIC
Experimental: as §1, §2

P. vulugaris OX-19 = tested on: P. vulugaris OX-19
Experimental: as §1, §2

M. luteus ATCC 9341 = conditions: Micrococcus luteus, ATCC9341
Experimental: as §1, §2

S. marcescens IAM 1184 = conditions: Serratia marcescens, IAM1184, S. marcescens IAM 1184; read-out: MIC
Experimental: as §1, §2

A. faecalis ATCC 3750 = conditions: Alcaligenes faecalis, ATCC3750, A. faecalis ATCC 3750; read-out: MIC
Experimental: as §1, §2

S. aureus 209p JC-1 = conditions: Staphylococcus aureus, 209P, read-out: MIC
Experimental: as §1, §2

S. aureus 195 = conditions: Staphylococcus aureus; S. aureus 195 (MRSA)
Experimental: as §1, §2

A. calcoaceticos T59 = conditions: read-out: MIC
Experimental: as §1, §2

E. cloacae Nek39 = conditions: Enterobacter cloacae, NEK39, E. cloacae Nek39; read-out: MIC
Experimental: as §1, §2

Row | SMILES | MIC (P. mirabilis IFO 3849) [µg/mL] | MIC (S. epidemidis IAM 1296) [µg/mL] | MIC (S. aureus 167) [µg/mL] | MIC (E. coli CSH2(RK1)) [µg/mL] | MIC (C. freundii ATCC 8090) [µg/mL] | MIC (M. morganii IFO 3848) [µg/mL] | MIC (K. pneuminiae No. 42) [µg/mL] | MIC (E. coli CSH2(RE45)) [µg/mL] | MIC (P. cepacia) [µg/mL] | MIC (K. pneuminiae IFO 3317) [µg/mL] | MIC (S. aureus Smith) [µg/mL] | MIC (E. coli NHIJ JC-2) [µg/mL] | MIC (B. subtilis ATCC 6633) [µg/mL] | MIC (S. marcescens No. 16-2) [µg/mL] | MIC (P. aeruginosa AKR17) [µg/mL] | MIC (E. cloacae ATCC 13407) [µg/mL] | MIC (P. aeruginosa NCTC 10490) [µg/mL] | MIC (P. vulugaris OX-19) [µg/mL] | MIC (M. luteus ATCC 9341) [µg/mL] | MIC (S. marcescens IAM 1184) [µg/mL] | also measured
1 | NC(=O)Cc1ccc[n+](CC2=C(C(=O)[O-])N3C(=O)[C@@H](NC(=O)/C(=N\O)c4nsc(N)n4)[C@H]3SC2)c1 [Ex. 1, 7β-[2-(5-amino-1,2,4-thiadiazol-3-yl)-2-syn-hydroxyiminoacetamido]-3-(3-carbamoylmethylpyridinio)methyl-3-cephem-4-carboxylate] | 1.56 (≈ 3.01 µM) | 0.39 (≈ 0.752 µM) | 12.5 (≈ 24.1 µM) | 3.13 (≈ 6.04 µM) | 1.56 (≈ 3.01 µM) | 1.56 (≈ 3.01 µM) | 1.56 (≈ 3.01 µM) | 3.13 (≈ 6.04 µM) | > 100 | 0.78 (≈ 1.5 µM) | 1.56 (≈ 3.01 µM) | 1.56 (≈ 3.01 µM) | 0.39 (≈ 0.752 µM) | > 100 | > 100 | 3.13 (≈ 6.04 µM) | 0.78 (≈ 1.5 µM) | 3.13 (≈ 6.04 µM) | 0.2 (≈ 0.386 µM) | 0.78 (≈ 1.5 µM) | MIC (A. faecalis ATCC 3750): 6.25 µg/mL (≈ 12.1 µM); MIC (S. aureus 209p JC-1): 0.78 µg/mL (≈ 1.5 µM); MIC (S. aureus 195): 12.5 µg/mL (≈ 24.1 µM); MIC (A. calcoaceticos T59): 3.13 µg/mL (≈ 6.04 µM); MIC (E. cloacae Nek39): 100 µg/mL (≈ 193 µM)
2 | Nc1nc(/C(=N/O)C(=O)N[C@@H]2C(=O)N3C(C(=O)[O-])=C(C[n+]4ccc(-c5ncno5)cc4)CS[C@H]23)ns1 [Ex. 6, 7β-[2-(5-amino-1,2,4-thiadiazol-3-yl)-2-syn-hydroxyiminoacetamido]-3-[4-(1,2,4-oxadiazol-5-yl)pyridinio]methyl-3-cephem-4-carboxylate] | 0.78 (≈ 1.47 µM) | 0.39 (≈ 0.737 µM) | 12.5 (≈ 23.6 µM) | 1.56 (≈ 2.95 µM) | 0.78 (≈ 1.47 µM) | 0.39 (≈ 0.737 µM) | 1.56 (≈ 2.95 µM) | 0.78 (≈ 1.47 µM) | > 100 | 0.39 (≈ 0.737 µM) | 1.56 (≈ 2.95 µM) | 0.78 (≈ 1.47 µM) | 0.39 (≈ 0.737 µM) | > 100 | > 100 | 6.25 (≈ 11.8 µM) | 0.78 (≈ 1.47 µM) | 1.56 (≈ 2.95 µM) | 0.1 (≈ 0.189 µM) | 0.78 (≈ 1.47 µM) | MIC (A. faecalis ATCC 3750): 3.13 µg/mL (≈ 5.91 µM); MIC (S. aureus 209p JC-1): 0.78 µg/mL (≈ 1.47 µM); MIC (S. aureus 195): 6.25 µg/mL (≈ 11.8 µM); MIC (A. calcoaceticos T59): 6.25 µg/mL (≈ 11.8 µM); MIC (E. cloacae Nek39): 50 µg/mL (≈ 94.4 µM)
3 | Nc1nc(/C(=N/O)C(=O)N[C@@H]2C(=O)N3C(C(=O)[O-])=C(C[n+]4ccc(-c5nnco5)cc4)CS[C@H]23)cs1 [Ex. 18, 7β-[2-(2-aminothiazol-4-yl)-2-syn-hydroxyiminoacetsmido]-3-[4-(1,3,4-oxadiazol-2-yl)pyridinio]methyl-3-cephem-4-carboxylate] | 0.2 (≈ 0.378 µM) | 0.39 (≈ 0.738 µM) | 25 (≈ 47.3 µM) | 6.25 (≈ 11.8 µM) | 0.39 (≈ 0.738 µM) | 0.05 (≈ 0.0946 µM) | 1.56 (≈ 2.95 µM) | 0.39 (≈ 0.738 µM) | > 100 | 0.2 (≈ 0.378 µM) | 1.56 (≈ 2.95 µM) | 0.2 (≈ 0.378 µM) | 0.78 (≈ 1.48 µM) | > 100 | > 100 | 50 (≈ 94.6 µM) | 12.5 (≈ 23.7 µM) | 0.2 (≈ 0.378 µM) | 0.2 (≈ 0.378 µM) | 0.39 (≈ 0.738 µM) | MIC (A. faecalis ATCC 3750): 1.56 µg/mL (≈ 2.95 µM); MIC (S. aureus 209p JC-1): 0.78 µg/mL (≈ 1.48 µM); MIC (S. aureus 195): 12.5 µg/mL (≈ 23.7 µM); MIC (A. calcoaceticos T59): 25 µg/mL (≈ 47.3 µM); MIC (E. cloacae Nek39): > 100 µg/mL
4 | Nc1nc(/C(=N/O)C(=O)N[C@@H]2C(=O)N3C(C(=O)[O-])=C(C[n+]4cccc(-c5ncno5)c4)CS[C@H]23)cs1 [Ex. 7, 7β-[2-(2-aminothiazol-4-yl)-2-syn-hydroxyiminoacetamido]-3-[3-(1,2,4-oxadiazol-5-yl)pyridinio]methyl-3-cephem-4-carboxylate] | 0.78 (≈ 1.48 µM) | 0.2 (≈ 0.378 µM) | 12.5 (≈ 23.7 µM) | 1.56 (≈ 2.95 µM) | 0.78 (≈ 1.48 µM) | 0.39 (≈ 0.738 µM) | 1.56 (≈ 2.95 µM) | 1.56 (≈ 2.95 µM) | > 100 | 0.78 (≈ 1.48 µM) | 0.78 (≈ 1.48 µM) | 0.78 (≈ 1.48 µM) | 0.78 (≈ 1.48 µM) | > 100 | > 100 | 6.25 (≈ 11.8 µM) | 6.25 (≈ 11.8 µM) | 1.56 (≈ 2.95 µM) | 0.2 (≈ 0.378 µM) | 0.78 (≈ 1.48 µM) | MIC (A. faecalis ATCC 3750): 3.13 µg/mL (≈ 5.92 µM); MIC (S. aureus 209p JC-1): 0.39 µg/mL (≈ 0.738 µM); MIC (S. aureus 195): 6.25 µg/mL (≈ 11.8 µM); MIC (A. calcoaceticos T59): 25 µg/mL (≈ 47.3 µM); MIC (E. cloacae Nek39): 100 µg/mL (≈ 189 µM)

From patent EP0641797A1, “Cephem derivatives and antimicrobial agents containing the same” (KATAYAMA SEIYAKUSYO CO. Ltd., priority 1993, dated 1995)
